The assay concerns the target T1, hP2X3 (human Purinergic P2X receptors subtype 3), clone B (Homo sapiens, UniProt P56373).
T1 sequence (P56373 1-397): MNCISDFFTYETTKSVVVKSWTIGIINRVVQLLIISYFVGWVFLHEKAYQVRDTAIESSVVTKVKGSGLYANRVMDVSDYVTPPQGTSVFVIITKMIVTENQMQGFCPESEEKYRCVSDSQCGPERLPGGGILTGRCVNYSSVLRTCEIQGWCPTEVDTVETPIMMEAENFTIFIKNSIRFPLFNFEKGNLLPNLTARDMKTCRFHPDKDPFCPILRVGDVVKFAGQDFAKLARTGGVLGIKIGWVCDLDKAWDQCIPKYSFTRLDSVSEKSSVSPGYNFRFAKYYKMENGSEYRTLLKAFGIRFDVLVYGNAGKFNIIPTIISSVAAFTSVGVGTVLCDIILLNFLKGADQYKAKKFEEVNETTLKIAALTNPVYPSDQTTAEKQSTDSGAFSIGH
Description: hP2X3 FLIPR calcium (Fluo-4) antagonist assay, clone B. To be noted: Human P2X3 FLIPR Clone B IC50 (nM), RLE cells expressing hP2X3 clone B (NM_002559); agonist 500 nM α,β-methylene-ATP.

One may read the IC50 as the point on the concentration scale where inhibition reaches its midpoint. Take `CC(=O)N1CCN(c2nc(Nc3cccc(C(C)C)c3)c3c(n2)C(=O)N(C(C)C)C3)CC1` [Example 105, 2-(4-Acetyl-piperazin-1-yl)-6-isopropyl-4-(3-isopropyl-phenylamino)-5,6-dihydro-pyrrolo[3,4-d]-pyrimidin-7-one]: the IC50 is 9300 nM. Take `CC(C)N1Cc2c(NC(c3ccccc3)c3ccc(Cl)cc3)nc(N3CC4CC3CN4C)nc2C1=O` (stereo not drawn) [Example 20, 4-{[(4-chlorophenyl)(phenyl)methyl]amino}-6-isopropyl-2-(5-methyl-2,5-diazabicyclo[2.2.1]hept-2-yl)-5,6-dihydro-7H-pyrrolo[3,4-d]pyrimidin-7-one]: the IC50 was 100 nM.

As for `CC(C)N1Cc2c(NC(C)(C)Cc3ccc(Cl)cc3)nc(N3CCN(CC(=O)N(C)C)CC3)nc2C1=O` [Example 63, 2-[4-(4-{[2-(4-chlorophenyl)-1,1-dimethylethyl]amino}-6-isopropyl-7-oxo-6,7-dihydro-5H-pyrrolo[3,4-d]pyrimidin-2-yl)piperazin-1-yl]-N,N-dimethylacetamide], the IC50 is 9200 nM. `CC(=O)N1CCN(c2nc3c(c(N4CCC[C@@H]4C(=O)NC4CCCCC4)n2)CN(C(C)C)C3=O)CC1` [Example 302, (2R)-1-[4-(4-acetylpiperazin-1-yl)-7-oxo-8-propan-2-yl-3,5,8-triazabicyclo[4.3.0]nona-1,3,5-trien-2-yl]-N-cyclohexyl-pyrrolidine-2-carboxamide]: the half-inhibitory concentration (IC50) amounted to 3100 nM. With `CC(=O)N1CCN(c2nc(NCc3ccc(C(C)C)cc3)c3c(n2)C(=O)N(C(C)C)C3)CC1` [Example 43, 2-(4-acetylpiperazin-1-yl)-6-isopropyl-4-[(4-isopropylbenzyl)amino]-5,6-dihydro-7H-pyrrolo[3,4-d]pyrimidin-7-one], the IC50 amounted to 650 nM. `CC(=O)N1CCN(c2nc(NC3CCc4cc(Cl)ccc43)c3c(n2)C(=O)N(C(C)C)C3)CC1` (stereo not drawn) [Example 133, 2-(4-Acetylpiperazin-1-yl)-4-(5-chloro-2,3-dihydro-1H-inden-1-ylamino)-6-isopropyl-5H-pyrrolo[3,4-d]pyrimidin-7(6H)-one]: the IC50 was determined as 4200 nM. Regarding `CC(=O)N1CCN(c2nc(N[C@H](C)c3ccc4c(c3)CCC4)c3c(n2)C(=O)N(C(C)C)C3)CC1` [Example 172, (R)-2-(4-acetylpiperazin-1-yl)-4-(1-(2,3-dihydro-1H-inden-5-yl)ethylamino)-6-isopropyl-5H-pyrrolo[3,4-d]pyrimidin-7(6H)-one], the IC50 was 44 nM. The result for `CC(=O)NCCNc1nc(NC(c2ccccc2)c2ccccc2)c2c(n1)C(=O)N(C(C)C)C2` [Example 93, N-{2-[4-(Benzhydryl-amino)-6-isopropyl-7-oxo-6,7-dihydro-5H-pyrrolo[3,4-d]pyrimidin-2-ylamino]-ethyl}-acetamide] reads 290 nM. With `CC(=O)N1CCN(c2nc3c(c(N(C)Cc4ccc5ccccc5n4)n2)CN(C(C)C)C3=O)CC1` [Example 249, 2-(4-acetylpiperazin-1-yl)-6-isopropyl-4-(methyl(quinolin-2-ylmethyl)amino)-5H-pyrrolo[3,4-d]pyrimidin-7(6H)-one] the figure was 6000 nM; with `CC(=O)N1CCN(c2nc(NCCc3ccc(C)cc3C)c3c(n2)C(=O)N(C(C)C)C3)CC1` [Example 56, 2-(4-acetylpiperazin-1-yl)-4-{[2-(2,4-dimethylphenyl)ethyl]amino}-6-isopropyl-5,6-dihydro-7H-pyrrolo[3,4-d]pyrimidin-7-one], 2700 nM; with `CCOc1ccc([C@@H](C)Nc2nc(N3CCN(C(C)=O)CC3)nc3c2CN(C(C)C)C3=O)c(C)c1` [Example 168, (R)-2-(4-acetylpiperazin-1-yl)-4-(1-(4-ethoxy-2-methylphenyl)ethylamino)-6-isopropyl-5H-pyrrolo[3,4-d]pyrimidin-7(6H)-one], 80 nM. For the compound `COc1ccc(C(Nc2nc(N3CCN(C(C)=O)CC3)nc3c2CN(C(C)C)C3=O)c2ccccc2)cc1` (stereo not drawn) [Example 103, 2-(4-Acetyl-piperazin-1-yl)-6-isopropyl-4-{[(4-methoxy-phenyl)-phenyl-methyl]-amino}-5,6-dihydro-pyrrolo[3,4-d]pyrimidin-7-one], the IC50 amounted to 310 nM. Take `CC(C)N1Cc2c(NCc3cnc4ccccc4c3)nc(N3CCN(C(=O)C4CC4)CC3)nc2C1=O` [Example 222, 2-[4-(cyclopropylcarbonyl)piperazin-1-yl]-6-(1-methylethyl)-4-[(quinolin-3-ylmethyl)amino]-5,6-dihydro-7H-pyrrolo[3,4-d]pyrimidin-7-one]: the IC50 came to 6300 nM. Turning to `CC(=O)N1CCN(c2nc3c(c(N4CCCC4c4cccc(C)c4)n2)CN(C(C)C)C3=O)CC1` (stereo not drawn) [Example 269, 4-(4-acetylpiperazin-1-yl)-2-[2-(3-methylphenyl)pyrrolidin-1-yl]-8-propan-2-yl-3,5,8-triazabicyclo[4.3.0]nona-2,4,10-trien-7-one], the IC50 stood at 740 nM. For `CC(=O)N1CCN(c2nc(N[C@H](C)c3ccc(Cl)c(C(F)(F)F)c3)c3c(n2)C(=O)N(C(C)C)C3)CC1` [Example 171, (R)-2-(4-acetylpiperazin-1-yl)-4-(1-(4-chloro-3-(trifluoromethyl)phenyl)ethylamino)-6-isopropyl-5H-pyrrolo[3,4-d]pyrimidin-7(6H)-one], the IC50 was 290 nM. Turning to `CC(=O)N1CCN(c2nc3c(c(N(Cc4ccccc4)CC4CC4)n2)CN(C(C)C)C3=O)CC1` [Example 51, 2-(4-acetylpiperazin-1-yl)-4-[benzyl(cyclopropylmethyl)amino]-6-isopropyl-5,6-dihydro-7H-pyrrolo[3,4-d]pyrimidin-7-one], the IC50 was 2700 nM.

Regarding `CCC(Nc1nc(N2CCN(C(C)=O)CC2)nc2c1CN(C(C)C)C2=O)c1ccc(C(F)(F)F)cc1` (stereo not drawn) [Example 32, 2-(4-acetylpiperazin-1-yl)-6-isopropyl-4-({1-[4-(trifluoromethyl)phenyl]propyl}amino)-5,6-dihydro-7H-pyrrolo[3,4-d]pyrimidin-7-one], the IC50 was 430 nM.

Take `CC(=O)N1CCN(c2nc(NCc3cnc4ccccc4c3)c3c(n2)C(=O)N(C(C)C)C3)C[C@H]1C` [Example 328, (R)-2-(4-acetyl-3-methylpiperazin-1-yl)-6-isopropyl-4-(quinolin-3-ylmethylamino)-5H-pyrrolo[3,4-d]pyrimidin-7(6H)-one]: the half-inhibitory concentration (IC50) came to 62 nM. As for `COc1ccccc1CC(C)(C)Nc1nc(N2CCN(C(C)=O)CC2)nc2c1CN(C(C)C)C2=O` [Example 195, 2-(4-acetylpiperazin-1-yl)-6-isopropyl-4-(1-(2-methoxyphenyl)-2-methylpropan-2-ylamino)-5H-pyrrolo[3,4-d]pyrimidin-7(6H)-one], the IC50 stood at 18000 nM. As for `COc1cccc(CC2CCCN2c2nc(N3CCN(C(C)=O)CC3)nc3c2CN(C(C)C)C3=O)c1` (stereo not drawn) [Example 291, 2-(4-acetylpiperazin-1-yl)-6-isopropyl-4-[2-[(3-methoxyphenyl)methyl]pyrrolidin-1-yl]-5H-pyrrolo[3,4-d]pyrimidin-7-one], the IC50 was found to be 490 nM. In the case of `CCC(=O)N1CCN(c2nc(NC(c3ccccc3)c3ccccc3)c3c(n2)C(=O)N(C(C)C)C3)CC1` [Example 87, 4-(Benzhydryl-amino)-6-isopropyl-2-(4-propionyl-piperazin-1-yl)-5,6-dihydro-pyrrolo[3,4-d]pyrimidin-7-one], the concentration for half-maximal inhibition (IC50) was 240 nM. For `CC(=O)N1CCN(c2nc(NC3CCCc4ccccc43)c3c(n2)C(=O)N(C(C)C)C3)CC1` (stereo not drawn) [Example 1, 2-(4-acetylpiperazin-1-yl)-6-isopropyl-4-(1,2,3,4-tetrahydronaphthalen-1-ylamino)-5,6-dihydro-7H-pyrrolo[3,4-d]pyrimidin-7-one], the IC50 worked out at 4800 nM.

For `CC(C)N1Cc2c(NC(C)(C)Cc3ccc(Cl)cc3)nc(N3CCN(C=O)CC3)nc2C1=O` [Example 128, 4-(4-{[2-(4-chlorophenyl)-1,1-dimethylethyl]amino}-6-isopropyl-7-oxo-6,7-dihydro-5H-pyrrolo[3,4-d]pyrimidin-2-yl)piperazine-1-carbaldehyde], the half-maximal inhibitory concentration (IC50) was 280 nM. Consider `CC(C)N1Cc2c(NC(C)(C)Cc3ccc(Cl)cc3)nc(N3CCN(C(=O)C(C)(C)C)CC3)nc2C1=O` [Example 125, 4-{[2-(4-chlorophenyl)-1,1-dimethylethyl]amino}-2-[4-(2,2-dimethylpropanoyl)piperazin-1-yl]-6-isopropyl-5,6-dihydro-7H-pyrrolo[3,4-d]pyrimidin-7-one], for which the IC50 came to 3800 nM. `CC(=O)N1CCN(c2nc(NC(C)c3ccc(C(F)(F)F)cc3)c3c(n2)C(=O)N(C(C)C)C3)CC1` (stereo not drawn) [Example 28, 2-(4-acetylpiperazin-1-yl)-6-isopropyl-4-({1-[4-(trifluoromethyl)phenyl]ethyl}amino)-5,6-dihydro-7H-pyrrolo[3,4-d]pyrimidin-7-one]: the IC50 worked out at 200 nM. Turning to `CC(=O)N1CCN(c2nc(NCc3cnc4ccccc4c3)c3c(n2)C(=O)N(C(C)C)C3)C[C@@H]1C` [Example 327, (S)-2-(4-acetyl-3-methylpiperazin-1-yl)-6-isopropyl-4-(quinolin-3-ylmethylamino)-5H-pyrrolo[3,4-d]pyrimidin-7(6H)-one], the IC50 is 91 nM. Turning to `CC(C)N1Cc2c(NC(C)(C)Cc3ccc(Cl)cc3)nc(N3C[C@@H](C)O[C@@H](C)C3)nc2C1=O` [Example 61, 4-{[2-(4-chlorophenyl)-1,1-dimethylethyl]amino}-2-[(2R,6S)-2,6-dimethylmorpholin-4-yl]-6-isopropyl-5,6-dihydro-7H-pyrrolo[3,4-d]pyrimidin-7-one], the IC50 was 1400 nM.
